Source: patent US20150209373A1, “Progesterone Receptor Modulators for Use in Preventing or Treating Androgen Mediated Diseases” (PregLem SA, priority 2012, published 2015)

Legend:
[1] = in vivo activity profile
[2] = target: T1, progesterone receptor (Homo sapiens, UniProt P06401); experiment: in vitro nuclear receptor selectivity profile - progesterone receptor; type: binding
T1 sequence (P06401 1-933): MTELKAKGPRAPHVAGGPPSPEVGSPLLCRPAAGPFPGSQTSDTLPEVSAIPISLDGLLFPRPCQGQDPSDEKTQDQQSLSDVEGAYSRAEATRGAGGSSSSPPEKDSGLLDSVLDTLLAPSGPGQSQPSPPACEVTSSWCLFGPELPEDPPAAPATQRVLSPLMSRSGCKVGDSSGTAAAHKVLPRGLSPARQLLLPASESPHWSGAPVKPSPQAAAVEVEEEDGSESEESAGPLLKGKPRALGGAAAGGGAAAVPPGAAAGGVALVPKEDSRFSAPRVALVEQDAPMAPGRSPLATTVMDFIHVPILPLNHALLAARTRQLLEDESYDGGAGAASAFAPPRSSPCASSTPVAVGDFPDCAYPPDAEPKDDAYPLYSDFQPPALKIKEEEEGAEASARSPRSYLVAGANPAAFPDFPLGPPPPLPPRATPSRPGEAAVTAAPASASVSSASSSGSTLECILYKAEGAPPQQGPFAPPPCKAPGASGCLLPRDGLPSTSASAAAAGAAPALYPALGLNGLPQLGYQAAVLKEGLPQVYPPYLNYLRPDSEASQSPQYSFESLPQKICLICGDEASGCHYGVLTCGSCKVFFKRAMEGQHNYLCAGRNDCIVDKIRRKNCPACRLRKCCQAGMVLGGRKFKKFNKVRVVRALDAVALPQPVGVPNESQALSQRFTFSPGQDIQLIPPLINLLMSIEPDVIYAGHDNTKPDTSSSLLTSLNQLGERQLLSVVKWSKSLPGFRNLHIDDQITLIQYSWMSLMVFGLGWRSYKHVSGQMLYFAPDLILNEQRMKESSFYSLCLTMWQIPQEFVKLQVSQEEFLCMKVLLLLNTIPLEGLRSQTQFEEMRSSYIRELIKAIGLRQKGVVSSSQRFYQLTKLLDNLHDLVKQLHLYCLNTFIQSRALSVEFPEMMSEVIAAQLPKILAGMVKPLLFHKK

[3] = test system: mice; experiment: 26 week oral carcinogenicity study with UPA in mice - organ weights; type: in vivo; conditions: 26 week oral carcinogenicity study in mice
Description: (§1) During a 104 week rat carcinogenicity assay, we observed seminal vesicles and prostate contraction at dose-levels of 1 (seminal vesicles, only), 3 and 10 mg/kg/day (PGL09-005). Similarly, during 4 and 26 week assays in the mouse, decreases in epididymidis weights were recorded at dose-levels ranging between 15 and 300 mg/kg/day (Tables 1 and 2). Ulipristal Acetate Anti-Androgenic Effect in a 26 Week Oral Carcinogenicity Study in Mice

[4] = test system: oestrogen receptors; experiment: in vitro nuclear receptor selectivity profile - oestrogen receptors; type: binding
[5] = test system: rat; experiment: 104 week rat carcinogenicity assay (PGL09-005); type: in vivo; conditions: 104 weeks
Description: as §1, with “2).” for “2). Ulipristal Acetate Anti-Androgenic Effect in a 26 Week Oral Carcinogenicity Study in Mice”

[6] = test system: mice; experiment: 4 week oral toxicity study with UPA in mice - organ weights; type: in vivo; conditions: 4 week oral toxicity study in mice
Description: as §1, with “a 4” for “a 26”, “Oral Toxicity” for “Oral Carcinogenicity”

[7] = target: T2, androgen receptor (Homo sapiens, UniProt P10275); experiment: in vitro nuclear receptor selectivity profile - androgen receptor; type: binding
T2 sequence (P10275 1-920): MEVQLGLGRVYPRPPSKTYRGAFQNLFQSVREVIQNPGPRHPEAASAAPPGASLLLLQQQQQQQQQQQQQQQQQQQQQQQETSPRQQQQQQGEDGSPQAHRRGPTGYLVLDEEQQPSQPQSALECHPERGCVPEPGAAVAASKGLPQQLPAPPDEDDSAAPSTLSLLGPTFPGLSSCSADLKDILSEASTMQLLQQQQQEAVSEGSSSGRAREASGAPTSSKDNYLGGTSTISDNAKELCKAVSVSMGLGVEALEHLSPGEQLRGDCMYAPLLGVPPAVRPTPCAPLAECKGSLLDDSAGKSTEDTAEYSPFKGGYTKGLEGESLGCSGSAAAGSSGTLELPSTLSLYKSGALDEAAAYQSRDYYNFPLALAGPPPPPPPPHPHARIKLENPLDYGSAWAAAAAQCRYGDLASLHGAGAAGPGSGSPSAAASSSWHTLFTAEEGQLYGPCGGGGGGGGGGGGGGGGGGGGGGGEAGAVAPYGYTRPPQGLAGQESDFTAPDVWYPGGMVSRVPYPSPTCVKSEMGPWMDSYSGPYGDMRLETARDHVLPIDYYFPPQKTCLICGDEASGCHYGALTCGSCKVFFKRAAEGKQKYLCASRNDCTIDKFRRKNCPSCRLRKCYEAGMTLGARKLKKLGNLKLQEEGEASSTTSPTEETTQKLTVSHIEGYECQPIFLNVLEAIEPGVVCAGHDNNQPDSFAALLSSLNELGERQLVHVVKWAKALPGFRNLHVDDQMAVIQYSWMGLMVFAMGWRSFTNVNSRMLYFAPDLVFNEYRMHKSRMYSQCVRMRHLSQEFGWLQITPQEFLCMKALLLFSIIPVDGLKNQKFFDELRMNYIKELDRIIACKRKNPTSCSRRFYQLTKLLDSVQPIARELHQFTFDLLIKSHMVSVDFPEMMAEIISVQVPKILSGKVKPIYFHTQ

[8] = target: T3, glucocorticoid receptor (Homo sapiens, UniProt P04150); experiment: in vitro nuclear receptor selectivity profile - glucocorticoid receptor; type: binding
T3 sequence (P04150 1-777): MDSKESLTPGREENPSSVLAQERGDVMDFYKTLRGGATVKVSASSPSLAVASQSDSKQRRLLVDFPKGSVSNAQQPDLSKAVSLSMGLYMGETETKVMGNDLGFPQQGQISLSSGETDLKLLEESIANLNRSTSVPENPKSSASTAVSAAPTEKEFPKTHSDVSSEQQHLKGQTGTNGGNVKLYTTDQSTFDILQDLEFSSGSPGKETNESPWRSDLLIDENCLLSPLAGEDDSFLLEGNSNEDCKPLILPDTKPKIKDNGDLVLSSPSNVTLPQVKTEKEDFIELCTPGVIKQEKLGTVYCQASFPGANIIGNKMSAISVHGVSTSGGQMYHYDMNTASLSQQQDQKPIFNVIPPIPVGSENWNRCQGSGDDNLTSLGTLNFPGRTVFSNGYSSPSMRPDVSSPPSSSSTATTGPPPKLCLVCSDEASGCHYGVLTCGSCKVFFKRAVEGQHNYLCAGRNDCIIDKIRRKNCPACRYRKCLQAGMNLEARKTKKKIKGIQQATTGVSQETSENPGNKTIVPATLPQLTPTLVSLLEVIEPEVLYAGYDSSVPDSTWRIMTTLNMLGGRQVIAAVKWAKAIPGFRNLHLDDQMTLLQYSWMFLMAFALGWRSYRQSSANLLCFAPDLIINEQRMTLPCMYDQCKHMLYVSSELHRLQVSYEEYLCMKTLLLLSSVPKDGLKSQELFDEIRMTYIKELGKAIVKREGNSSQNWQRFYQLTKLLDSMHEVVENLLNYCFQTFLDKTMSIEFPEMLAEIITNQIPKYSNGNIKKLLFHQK

affinity for the progesterone receptor [2]: high affinity
affinity for the oestrogen receptors [4]: no affinity
affinity for the androgen receptor [7]: much lower affinity
affinity for the glucocorticoid receptor [8]: high affinity
Structure (SMILES): CC(=O)O[C@]1(C(C)=O)CC[C@H]2[C@@H]3CCC4=CC(=O)CCC4=C3[C@@H](c3ccc(N(C)C)cc3)C[C@@]21C [UPA, Ulipristal acetate]
in vivo anti-androgenic activity [1]: anti-androgenic effects
in vivo anti-glucocorticoid activity [1]: no significant anti-glucocorticoid effects
interpretation of decrease in organ weight [3]: suggestive of anti-androgenic like effects
seminal vesicles finding ([5]; dose-levels of 1, 3 and 10 mg/kg/day): contraction
prostate finding ([5]; dose-levels of 3 and 10 mg/kg/day (not at 1 mg/kg/day)): contraction
interpretation of decrease in organ weight [6]: suggestive of anti-androgenic like effects
